Values of other authors as cited in patent US20230082651A1, “STABLE AQUEOUS COMPOSITIONS OF PLANTS EXTRACTS AND METHODS OF MAKING THE SAME” (Nulixir Inc., priority 2021, published 2023).

Conditions: as a function of water content

Row | solubility in ethanol | Compound
1 | decreases rapidly with water content | COc1ccc2cc3[n+](cc2c1OC)CCc1cc2c(cc1-3)OCO2 [berberine]

Conditions: water and n-octanol; categorization at pH=7 unless stated otherwise

Row | Compound | log P
2 | COc1cc([C@H]2Oc3cc(O)c4c(=O)c(O)c(-c5ccc(O)cc5)oc4c3O[C@@H]2CO)ccc1O [rhodiolin] | ~2
3 | COc1ccc(CCc2cc(OC)cc(=O)o2)cc1 [7,8-dihydroyangonin] | ~2.9
4 | herinacine A | ~2.5
5 | CC(C)=C[C@@H]1CO[C@]23C[C@]4(CO2)[C@H](CC[C@@H]2[C@@]5(C)CC[C@H](O[C@@H]6OC[C@H](O)[C@H](O[C@@H]7O[C@H](CO)[C@@H](O)[C@H](O)[C@H]7O)[C@H]6O[C@@H]6O[C@@H](CO)[C@H](O)[C@H]6O)C(C)(C)[C@@H]5CC[C@]24C)[C@H]3[C@@]1(C)O [bacopasaponin C] | ~2
6 | CC(=O)OC1C=CC(=O)N(C(=O)CCc2ccccc2)C1 (stereo not drawn) [pipermethystine] | ~1.8
7 | N#C[C@@]1(O[C@@H]2O[C@H](CO)[C@@H](O)[C@H](O)[C@H]2O)C=C[C@@H](O)C1 [tetraphyllin B] | ~−2.5
8 | tortuosomine | ~3
9 | COc1cc2c(c(OC)c1OC)-c1c(cc(OC)c(OC)c1OC)C[C@](C)(O)[C@@H](C)C2 [(+)-schisandrin] | ~5
10 | COc1ccc([C@@]23CCC(=O)C[C@@H]2N(C)CC3)cc1OC [mesembrine] | ~1.5
11 | CC(C)=CCC[C@](C)(O[C@@H]1O[C@H](CO)[C@@H](O)[C@H](O)[C@H]1O)[C@H]1CC[C@]2(C)[C@@H]1[C@H](O)C[C@@H]1[C@@]3(C)CC[C@H](O)C(C)(C)[C@@H]3[C@@H](O[C@@H]3O[C@H](CO)[C@@H](O)[C@H](O)[C@H]3O)C[C@]12C [ginsenoside rgl] | ~0.8
12 | COc1cc(/C=C\c2ccc(OC)c(O)c2)oc(=O)c1 [11-hydroxyyangonin] | ~2.2
13 | COc1c2c(cc3c1-c1c(cc4c(c1OC)OCO4)C[C@H](C)[C@H](C)C3)OCO2 [(−)-schisandrin C] | ~3.5
14 | CC1=C(CO)C(=O)O[C@@H]([C@@H](C)[C@H]2CC[C@H]3[C@@H]4C[C@H](Cl)[C@]5(O)[C@@H](O)C=CC(=O)[C@]5(C)[C@H]4CC[C@]23C)C1 [6a-chloro-5b-hydroxywithaferin A] | ~3.2
15 | COc1ccc([C@@]23C=CC(=O)C[C@@H]2N(C)CC3)cc1OC [mesembrenone] | ~1.3
16 | bacopaside B | ~2.8
17 | CC(C)=C[C@H]1C[C@](C)(O)[C@@H]2[C@H]3CC[C@@H]4[C@@]5(C)CC[C@H](O[C@@H]6OC[C@H](O)[C@H](O[C@@H]7O[C@H](CO)[C@@H](O)[C@H](O)[C@H]7O)[C@H]6O[C@@H]6O[C@@H](CO)[C@H](O)[C@H]6O)C(C)(C)[C@@H]5CC[C@@]4(C)[C@@]34CO[C@@]2(C4)O1 [bacopaside X] | ~2.2
18 | COc1nc2c(c(=O)n1C)n(C)c(=O)n2C [methylliberine] | ~−0.083
19 | COc1cc2c(c(OC)c1OC)-c1c(cc(OC)c(OC)c1OC)C[C@H](C)[C@H](C)C2 [(−)-schisandrin A] | ~3.6
20 | COC1=CC(=O)O[C@@H](CCc2ccc3c(c2)OCO3)C1 [7,8-dihydromethysticin] | ~2.2
21 | COc1ccc(C23C=CC(O)CC2N(C)CC3)cc1OC (stereo not drawn) [mesembrenol] | ~2.4
22 | schisandroside C | ~1.6
23 | hericerin | ~6.4
24 | CC(C)=CCC[C@](C)(O[C@@H]1O[C@H](CO[C@@H]2O[C@H](CO)[C@@H](O)[C@H](O)[C@H]2O)[C@@H](O)[C@H](O)[C@H]1O)[C@H]1CC[C@]2(C)[C@@H]1[C@H](O)C[C@@H]1[C@@]3(C)CC[C@H](O[C@@H]4O[C@H](CO)[C@@H](O)[C@H](O)[C@H]4O[C@@H]4O[C@H](CO)[C@@H](O)[C@H](O)[C@H]4O)C(C)(C)[C@@H]3CC[C@]12C [ginsenoside rb1] | ~−1
25 | COC1=CC(=O)OC(/C=C/c2ccc(OC)cc2)C1 (stereo not drawn) [5,6-dihydroyangonin] | ~2.5
26 | (R)-kawain | ~2.7
27 | CC(C)=C[C@H]1C[C@](C)(O)[C@H]2[C@H]3CC[C@@H]4[C@@]5(C)CC[C@H](O[C@@H]6O[C@H](CO)[C@@H](O)[C@H](O[C@@H]7O[C@H](CO)[C@@H](O)[C@H](O)[C@H]7O)[C@H]6O[C@@H]6O[C@@H](CO)[C@H](O)[C@H]6O)C(C)(C)[C@@H]5CC[C@@]4(C)[C@@]34CO[C@@]2(C4)O1 [bacoside A3] | ~2.1
